The record followed here is article PMC12155096 (International Journal of Molecular Sciences, 2025).

For one data set, the target named is human CYP2D6 (Homo sapiens, UniProt P10635).
The next data set concerns the target T1, human CYP1A2 (Homo sapiens, UniProt P05177).
T1 sequence (P05177 1-516): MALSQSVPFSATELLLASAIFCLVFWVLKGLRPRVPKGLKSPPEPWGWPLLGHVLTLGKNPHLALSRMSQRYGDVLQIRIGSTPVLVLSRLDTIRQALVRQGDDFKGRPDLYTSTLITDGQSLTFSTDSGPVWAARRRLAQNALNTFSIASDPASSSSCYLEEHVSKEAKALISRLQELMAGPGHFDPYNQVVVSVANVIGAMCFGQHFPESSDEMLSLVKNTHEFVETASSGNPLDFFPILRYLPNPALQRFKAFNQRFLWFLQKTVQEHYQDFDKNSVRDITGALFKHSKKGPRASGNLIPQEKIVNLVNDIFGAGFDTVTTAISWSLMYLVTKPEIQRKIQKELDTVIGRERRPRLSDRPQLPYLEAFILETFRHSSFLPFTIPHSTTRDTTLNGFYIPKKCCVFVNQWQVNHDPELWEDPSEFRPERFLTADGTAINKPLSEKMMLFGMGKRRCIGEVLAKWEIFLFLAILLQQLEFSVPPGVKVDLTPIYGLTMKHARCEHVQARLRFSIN

Data set [1] concerns the target T2, human CYP2C19 (Homo sapiens, UniProt P33261).
The next data set deals with human CYP2C9 (Homo sapiens, UniProt P11712). Description: biochemical.
Sequence of human CYP2C9 (P11712 whole entry): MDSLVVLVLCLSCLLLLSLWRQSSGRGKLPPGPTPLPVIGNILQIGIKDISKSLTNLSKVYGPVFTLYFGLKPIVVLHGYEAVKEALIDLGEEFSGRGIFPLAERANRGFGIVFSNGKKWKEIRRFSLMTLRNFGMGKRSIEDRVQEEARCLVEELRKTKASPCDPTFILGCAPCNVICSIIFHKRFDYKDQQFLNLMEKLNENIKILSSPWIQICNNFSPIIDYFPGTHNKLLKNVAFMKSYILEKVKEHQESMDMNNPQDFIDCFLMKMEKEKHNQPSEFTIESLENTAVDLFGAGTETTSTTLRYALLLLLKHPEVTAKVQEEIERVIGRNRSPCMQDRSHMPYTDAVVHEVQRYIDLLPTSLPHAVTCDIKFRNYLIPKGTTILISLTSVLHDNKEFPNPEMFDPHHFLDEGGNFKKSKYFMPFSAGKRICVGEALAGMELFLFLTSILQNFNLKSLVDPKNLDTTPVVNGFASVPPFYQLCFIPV
For data set [2], the target named is T2, human CYP2C19. Description: biochemical.
Where [3] appears, read: CYP2C9 AC50 (half-maximal activity concentration).
Setting [4] is: CYP2C19 AC50 (half-maximal activity concentration).
Setting [5] is: CYP2C9 IC50 (half-maximal inhibitory concentration).
Where [6] appears, read: CYP2C19 IC50 (half-maximal inhibitory concentration).

Each structure is given as a SMILES string. Counter-ions that a name gives are not always drawn. Like-named read-outs stand apart in the source and are kept apart here.

Sequence of human CYP2D6 (P10635 whole entry): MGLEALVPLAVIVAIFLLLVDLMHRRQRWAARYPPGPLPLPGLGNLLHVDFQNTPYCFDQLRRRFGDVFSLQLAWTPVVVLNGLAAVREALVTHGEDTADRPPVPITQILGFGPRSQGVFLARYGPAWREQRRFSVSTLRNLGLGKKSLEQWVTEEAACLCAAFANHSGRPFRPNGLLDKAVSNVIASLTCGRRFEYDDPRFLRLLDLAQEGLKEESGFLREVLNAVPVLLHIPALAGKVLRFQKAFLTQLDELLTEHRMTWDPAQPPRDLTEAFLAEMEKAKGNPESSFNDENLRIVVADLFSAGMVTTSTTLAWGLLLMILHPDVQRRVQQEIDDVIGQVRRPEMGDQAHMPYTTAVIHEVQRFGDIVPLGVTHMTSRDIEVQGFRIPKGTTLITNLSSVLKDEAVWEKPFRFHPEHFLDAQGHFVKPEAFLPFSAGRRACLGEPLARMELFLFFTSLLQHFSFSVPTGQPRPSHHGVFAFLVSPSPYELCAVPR
T2 sequence (P33261 whole entry): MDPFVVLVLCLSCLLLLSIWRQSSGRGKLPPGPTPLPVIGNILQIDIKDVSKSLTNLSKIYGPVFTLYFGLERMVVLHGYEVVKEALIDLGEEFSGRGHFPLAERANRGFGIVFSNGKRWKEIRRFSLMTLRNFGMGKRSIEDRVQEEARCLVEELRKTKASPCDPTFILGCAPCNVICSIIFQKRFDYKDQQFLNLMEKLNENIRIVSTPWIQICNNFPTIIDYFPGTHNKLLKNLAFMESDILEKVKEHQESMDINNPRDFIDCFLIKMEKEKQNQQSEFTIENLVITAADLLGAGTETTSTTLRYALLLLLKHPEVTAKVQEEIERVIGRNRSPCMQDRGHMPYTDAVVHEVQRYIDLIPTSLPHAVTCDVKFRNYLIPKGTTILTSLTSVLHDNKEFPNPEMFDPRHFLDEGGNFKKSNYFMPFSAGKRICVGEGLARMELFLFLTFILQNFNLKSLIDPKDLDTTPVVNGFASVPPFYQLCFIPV

The IC50 is the point on the concentration scale where inhibition reaches its midpoint. Read a low IC50 as inhibition by little substance. As to `Nc1nc2ccccc2n1Cc1ccc(F)cc1`, at human CYP2D6, the “CYP2D6 Efficacy (in parenthesis)” value is given as 0.67 ± 0.04 (-102 ± 1) % and the IC50 came out at 0.67 µM. Also, on human CYP1A2, the “CYP1A2 Efficacy (in parenthesis)” value is reported as 19.77 ± 4.14 (-57 ± 9) % and half-maximal inhibition (IC50) required 19.8 µM. Moreover, at human CYP2C19 [1], the “CYP2C19 Efficacy (in parenthesis)” value is given as 17.62 ± 3.69 (-115 ± 18) % and it took 17.6 µM to reach half-maximal inhibition (IC50).

For the compound `Cc1cc(-c2cc(C)c(N)c(C)c2)cc(C)c1N` [3,3'.5,5'-Tetramethylbenzidine], on human CYP1A2, the 50% inhibitory concentration (IC50) amounted to 0.45 µM.

The term AC50 denotes the midpoint of the concentration-response curve, whichever way the signal moves. Read a high AC50 as weaker potency. On to `CCC(C)(C)c1ccc(O)cc1` [4-(2-Methylbutan-2-yl)phenol], for which the AC50 on human CYP2C9 (setting [3]) was 14.8 µM; on human CYP2C19 [2] (setting [4]), 4.21 µM. For `Sc1ncnc2nc[nH]c12` [6-Mercaptopurine], the AC50 amounted to 22 µM at human CYP2C9 (setting [3]) and 34.7 µM at human CYP2C19 [2] (setting [4]). `C[C@]12CCC(=O)C=C1CC[C@@H]1[C@@H]2CC[C@@]2(C)[C@H]1CC[C@]2(C)O` [17-Methyltestosterone] gave a half-maximal activity concentration (AC50) at human CYP2C9 (setting [3]) of 32.7 µM.

As to `COC(=O)N[C@H](C(=O)N[C@@H](Cc1ccccc1)[C@@H](O)CN(Cc1ccc(-c2ccccn2)cc1)NC(=O)[C@@H](NC(=O)OC)C(C)(C)C)C(C)(C)C` [Atazanavir], the values for the IC50 at human CYP2C9 and at human CYP2C19 [2] were 15.5 µM and 36.4 ± 6.55 µM, respectively. For `CC(C)(c1ccc(O)cc1)c1ccc(O)cc1` [Bisphenol A], the AC50 was determined as 29.1 µM at human CYP2C9 (setting [3]) and 20 µM at human CYP2C19 [2] (setting [4]). As to `CC(C)C[C@H]1C(=O)N2CCC[C@H]2[C@]2(O)O[C@](NC(=O)[C@@H]3C=C4c5cccc6[nH]c(Br)c(c56)C[C@H]4N(C)C3)(C(C)C)C(=O)N12` [Bromocriptine mesylate], the half-inhibitory concentration (IC50) was found to be 7.32 µM against human CYP2C9 (setting [5]) and 20.8 µM at human CYP2C19 [2] (setting [6]). On to `CC(C)C[C@H](NC(=O)[C@H](CCc1ccccc1)NC(=O)CN1CCOCC1)C(=O)N[C@@H](Cc1ccccc1)C(=O)N[C@@H](CC(C)C)C(=O)[C@@]1(C)CO1` [Carfilzomib], for which the half-inhibitory concentration (IC50) against human CYP2C9 (setting [5]) stood at 29.2 µM.

Regarding `CC1(C)C(C=C(Cl)Cl)C1C(=O)OC(C#N)c1cccc(Oc2ccccc2)c1` (stereo not shown) [Cypermethrin], the AC50 at human CYP2C9 (setting [3]) was 11.9 µM; at human CYP2C19 [2] (setting [4]) it was 24.6 µM.

`CC(=O)O[C@]1(C(C)=O)CC[C@H]2[C@@H]3C=C(Cl)C4=CC(=O)[C@@H]5C[C@@H]5[C@]4(C)[C@H]3CC[C@@]21C` [Cyproterone acetate] came in with a concentration at half-maximal activity (AC50) at human CYP2C9 (setting [3]) of 15 µM. Besides, on human CYP2D6, the “CYP2D6 AC50 (half-maximal activity concentration)” value is reported as “Inactive”. In addition, the “CYP1A2 AC50 (half-maximal activity concentration)” value at human CYP1A2 is reported as “Inactive”. Also, the “CYP2C19 AC50 (half-maximal activity concentration)” value on human CYP2C19 [1] is “Inconclusive inhibitor”. Compound `CCCCCCCCCC(=O)O` [Decanoic acid] gave a concentration at half-maximal activity (AC50) on human CYP2C9 (setting [3]) of 69.7 µM.

For `C[C@]12CCC(=O)C=C1[C@@H]1C[C@@H]1[C@H]1[C@@H]3[C@@H]4C[C@@H]4[C@@]4(CCC(=O)O4)[C@@]3(C)CC[C@@H]12` [Drospirenone], the AC50 amounted to 26.4 ± 7.81 µM on human CYP2C9 and 1.17 ± 0.35 µM at human CYP2C19 [2]. For `CC(=O)Oc1ccc2c(c1)CC[C@@H]1[C@@H]2CC[C@]2(C)[C@@H](O)CC[C@@H]12` [Estradiol acetate], the AC50 at human CYP2C19 [2] is 20.6 ± 4.65 µM. For the compound `CCCSP(=O)(OCC)SCCC` [Ethoprop], the half-maximal activity concentration (AC50) was 37 µM at human CYP2C9 (setting [3]) and 20 µM on human CYP2C19 [2] (setting [4]). `O=C(O)Cc1ccccc1Oc1ccc(Cl)cc1Cl` [Fenclofenac]: the concentration at half-maximal activity (AC50) at human CYP2C9 was 29.7 ± 12.5 µM. As to `O=C(O)c1ccccc1Nc1cccc(C(F)(F)F)c1` [Flufenamic acid], on human CYP2C9, the half-maximal activity concentration (AC50) is 23.9 ± 9.43 µM. Regarding `Fc1ccc(C(c2ccc(F)cc2)N2CCN(C/C=C/c3ccccc3)CC2)cc1` [Flunarizine], on human CYP2C9 (setting [3]), the concentration at half-maximal activity (AC50) was determined as 14.9 µM. On to `COc1ccc(S(=O)(=O)Nc2nnc(CC(C)C)s2)cc1` [Glysobuzole], for which the AC50 at human CYP2C9 (setting [3]) was found to be 12.5 µM. Consider `Cl[C@H]1[C@H](Cl)[C@@H](Cl)[C@@H](Cl)[C@H](Cl)[C@H]1Cl` [Lindane], for which the figures for the concentration at half-maximal activity (AC50) on human CYP2C9 (setting [3]) and at human CYP2C19 [2] (setting [4]) were 43.2 µM and 35.7 µM, respectively. For `O=C(O)Cn1c(C(=O)Nc2nc(-c3ccccc3Cl)cs2)cc2ccccc21` [Lintitript], the AC50 at human CYP2C9 (setting [3]) is 35.1 µM. Compound `CN(C)C(=O)C(CCN1CCC(O)(c2ccc(Cl)cc2)CC1)(c1ccccc1)c1ccccc1` [Loperamide hydrochloride] showed an AC50 on human CYP2C19 [2] (setting [4]) of 40.5 µM. In turn, `CCOC(=O)O[C@]1(C(=O)OCCl)CC[C@H]2[C@@H]3CCC4=CC(=O)C=C[C@]4(C)[C@H]3[C@@H](O)C[C@@]21C` [Loteprednol etabonate, reference compound] yielded a half-maximal inhibitory concentration (IC50) against human CYP2C9 (setting [5]) of 29.2 µM. `Cc1nc2ccccc2c(=O)n1-c1ccccc1Cl` [Mecloqualone]: the half-maximal activity concentration (AC50) on human CYP2C9 (setting [3]) amounted to 37.7 µM; at human CYP2C19 [2] (setting [4]) it was 2.88 µM. Taken in the same sequence, the figures for `COCC(=O)N(c1c(C)cccc1C)C(C)C(=O)OC` (stereo not shown) [Metalaxyl] were 59.1 µM and 38.4 µM.

`CC(C)[C@H]1CC[C@H](C(=O)N[C@H](Cc2ccccc2)C(=O)O)CC1` [Nateglinide] came in with a half-maximal activity concentration (AC50) at human CYP2C9 (setting [3]) of 14 µM. Compound `O=C(OCC(COC(=O)c1cccnc1)(COC(=O)c1cccnc1)COC(=O)c1cccnc1)c1cccnc1` [Niceritrol] gave a half-maximal inhibitory concentration (IC50) on human CYP2C9 of 3.44 µM. `CCOC(=O)C1=C(C)NC(C)=C(C(=O)OC)C1c1cccc([N+](=O)[O-])c1` (stereo not shown) [Nitrendipine]: the IC50 at human CYP2C9 (setting [5]) was determined as 0.88 µM; at human CYP2C19 [2] (setting [6]) it was 1.4 µM.

As to `CC(=O)Oc1ccc(C2(c3ccc(OC(C)=O)cc3)C(=O)Nc3ccccc32)cc1` [Oxyphenisatin acetate], the AC50 was 5.5 µM on human CYP2C9 (setting [3]) and 11.9 µM on human CYP2C19 [2] (setting [4]). Consider `O=c1[nH]c2ccccc2n1C1CCN(CCCC(c2ccc(F)cc2)c2ccc(F)cc2)CC1` [Pimozide], for which the “CYP1A2 AC50 (half-maximal activity concentration)” value on human CYP1A2 is reported as “Inactive”. Consider `CC(C)(C)C(=O)OCOC(=O)[C@@H]1N2C(=O)[C@@H](NC(=O)[C@H](N)c3ccccc3)[C@H]2SC1(C)C` [Pivampicillin], for which the IC50 against human CYP2C9 (setting [5]) amounted to 23.6 µM. Take `COc1cc([C@@H]2c3cc4c(cc3[C@H](O)[C@H]3COC(=O)[C@H]23)OCO4)cc(OC)c1OC` [Podofilox]: the IC50 turned out to be 1.97 µM at human CYP2C9 and 3.71 µM against human CYP2C19 [2] (setting [6]). In turn, `CCCOC(=O)Cc1ccc(OCC(=O)N(CC)CC)c(OC)c1` [Propanidid] registered an AC50 on human CYP2C9 (setting [3]) of 21.2 µM.

`CCCOC(C(=O)OC1CCN(C)CC1)(c1ccccc1)c1ccccc1.Cl` [Propiverine hydrochloride] had an IC50 on human CYP2D6 of 6.81 µM.

Consider `COc1ccc(S(=O)(=O)N2c3ccc(Cl)cc3[C@](O)(c3ccccc3Cl)[C@@H]2C(=O)N2CCC[C@H]2C(N)=O)cc1OC` [Relcovaptan], for which, at human CYP2C9, it took 27.7 ± 9.09 µM to reach half-maximal inhibition (IC50).

Take `CN(CCOc1ccc(CC2SC(=O)NC2=O)cc1)c1ccccn1` (stereo not shown) [Rosiglitazone maleate]: the “CYP2C19 AC50 (half-maximal activity concentration)” value at human CYP2C19 [1] was “Inconclusive inhibitor”. In the case of `CC(=O)N(c1onc(C)c1C)S(=O)(=O)c1ccc(N)cc1` [Sulfisoxazole acetal], the concentration at half-maximal activity (AC50) on human CYP2C9 (setting [3]) worked out at 25.8 µM.

Take `O=C1OC(c2ccc(O)c(S(=O)(=O)O)c2)(c2ccc(O)c(S(=O)(=O)O)c2)c2c(Br)c(Br)c(Br)c(Br)c21` [Sulfobromophthalein]: the activity at human CYP2C9 (setting [3]) was half-maximal at 43.6 µM (AC50). Compound `CCCC(CCC)C(=O)O` [Valproic acid] came in with an AC50 on human CYP2C9 (setting [3]) of 47.3 µM. Compound `CCC1=C[C@@H]2CN(C1)Cc1c([nH]c3ccccc13)[C@@](C(=O)OC)(c1cc3c(cc1OC)N(C)[C@H]1[C@@](O)(C(=O)OC)[C@H](OC(C)=O)[C@]4(CC)C=CCN5CC[C@]31[C@@H]54)C2` [Vinorelbine tartrate] returned an IC50 against human CYP2C9 (setting [5]) of 21 µM.

Compound `O=C(O)Cn1c(=O)n(Cc2ccc(Br)cc2F)c(=O)c2ccc(Cl)cc21` [Zenarestat] registered a concentration at half-maximal activity (AC50) at human CYP2C9 of 14.4 ± 0.97 µM.

On to `COCCCC/C(=N\OCCN)c1ccc(C(F)(F)F)cc1` [fluvoxamine, reference compound], for which, on human CYP1A2 (human), the IC50 stood at 0.2 µM.
